Reference: the supplement of paper PMC10307832

Experiments:
Experiment in all cases: relative viability (nuclei count vs DMSO), 5 days (fraction); higher = more cells survive
IA-LM = tested on: IA-LM
Method in brief: (§1)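 For relative viability, nuclei counts in treated wells were divided by those in vehicle wells. Lung cancer cell lines had been pin-tool dosed in 1536-well plates the day after seeding and cultured for 5 days, then fixed and stained in one step (final 0.05% Triton X-100, 1% formaldehyde, 1 ug/ml Hoechst) and imaged at 4×. Doses were one drug alone or a fixed anchor-drug dose plus five library-drug doses (not always all listed) in √10 steps, and values are duplicate-plate medians.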

NCI-H520 = tested on: NCI-H520
Method in brief: as §1

EBC-1 = tested on: EBC-1
Method in brief: as §1

NCI-H1299 = tested on: NCI-H1299
Method in brief: as §1

Calu-6 = tested on: Calu-6
Method in brief: as §1

NCI-H838 = tested on: NCI-H838
Method in brief: as §1

NCI-H1651 = tested on: NCI-H1651
Method in brief: as §1

A549 = tested on: A549
Method in brief: as §1

NCI-H650 = tested on: NCI-H650
Method in brief: as §1

NCI-H1703 = tested on: NCI-H1703
Method in brief: as §1

RERF-LC-KJ = tested on: RERF-LC-KJ
Method in brief: as §1

NCI-H1944 = tested on: NCI-H1944
Method in brief: as §1

Compound `CCN(CC)CCCCNc1ncc2cc(-c3cc(OC)cc(OC)c3)c(NC(=O)NC(C)(C)C)nc2n1` + CS(=O)(=O)CCNCc1ccc(-c2ccc3ncnc(Nc4ccc(OCc5cccc(F)c5)c(Cl)c4)c3c2)o1 [Lapatinib] (partner 2 µM) has a relative viability (IA-LM; first compound 0.01 µM) of 0.805, a relative viability (IA-LM; first compound 0.03162 µM) of 0.644 and a relative viability (IA-LM; first compound 0.1 µM) of 0.917. For the same compound, the relative viability (IA-LM; first compound 0.3162 µM) was 0.793, the relative viability (IA-LM; first compound 1 µM) was 1.05 and the relative viability (NCI-H520; first compound 0.01 µM) was 1.07. The relative viability (NCI-H520; first compound 0.03162 µM) was 0.946, the relative viability (NCI-H520; first compound 0.1 µM) was 1.11 and the relative viability (NCI-H520; first compound 0.3162 µM) was 0.792. The relative viability (NCI-H520; first compound 1 µM) was 0.308, the relative viability (EBC-1; first compound 0.01 µM) was 0.228 and the relative viability (EBC-1; first compound 0.03162 µM) was 0.231. It also gave a relative viability (EBC-1; first compound 0.1 µM) of 0.209, a relative viability (EBC-1; first compound 0.3162 µM) of 0.217 and a relative viability (EBC-1; first compound 1 µM) of 0.208. It also gave a relative viability (NCI-H1299; first compound 0.01 µM) of 1, a relative viability (NCI-H1299; first compound 0.03162 µM) of 0.977 and a relative viability (NCI-H1299; first compound 0.1 µM) of 0.995. The relative viability (NCI-H1299; first compound 0.3162 µM) was 1.05, the relative viability (NCI-H1299; first compound 1 µM) was 0.912 and the relative viability (Calu-6; first compound 0.01 µM) was 1.09. The relative viability (Calu-6; first compound 0.03162 µM) was 1.15, the relative viability (Calu-6; first compound 0.1 µM) was 1.31 and the relative viability (Calu-6; first compound 0.3162 µM) was 1.24. For the same compound, the relative viability (Calu-6; first compound 1 µM) was 1.02, the relative viability (NCI-H838; first compound 0.01 µM) was 0.865 and the relative viability (NCI-H838; first compound 0.03162 µM) was 0.993. It also gave a relative viability (NCI-H838; first compound 0.1 µM) of 1.2, a relative viability (NCI-H838; first compound 0.3162 µM) of 0.969 and a relative viability (NCI-H838; first compound 1 µM) of 0.563. The relative viability (NCI-H1651; first compound 0.01 µM) was 0.896, the relative viability (NCI-H1651; first compound 0.03162 µM) was 1.03 and the relative viability (NCI-H1651; first compound 0.1 µM) was 1.18. It also gave a relative viability (NCI-H1651; first compound 0.3162 µM) of 0.844, a relative viability (NCI-H1651; first compound 1 µM) of 0.554 and a relative viability (A549; first compound 0.01 µM) of 1.11. It also gave a relative viability (A549; first compound 0.03162 µM) of 0.957, a relative viability (A549; first compound 0.1 µM) of 1.45 and a relative viability (A549; first compound 0.3162 µM) of 0.972. It also gave a relative viability (A549; first compound 1 µM) of 0.875, a relative viability (NCI-H650; first compound 0.01 µM) of 0.988 and a relative viability (NCI-H650; first compound 0.03162 µM) of 0.944. For the same compound, the relative viability (NCI-H650; first compound 0.1 µM) was 1.06, the relative viability (NCI-H650; first compound 0.3162 µM) was 1.18 and the relative viability (NCI-H650; first compound 1 µM) was 0.734. It also gave a relative viability (NCI-H1703; first compound 0.01 µM) of 0.912, a relative viability (NCI-H1703; first compound 0.03162 µM) of 0.819 and a relative viability (NCI-H1703; first compound 0.1 µM) of 1.3. It also gave a relative viability (NCI-H1703; first compound 0.3162 µM) of 1.35, a relative viability (NCI-H1703; first compound 1 µM) of 0.774 and a relative viability (RERF-LC-KJ; first compound 0.01 µM) of 0.854. For the same compound, the relative viability (RERF-LC-KJ; first compound 0.03162 µM) was 0.893, the relative viability (RERF-LC-KJ; first compound 0.1 µM) was 0.907 and the relative viability (RERF-LC-KJ; first compound 0.3162 µM) was 0.949. The relative viability (RERF-LC-KJ; first compound 1 µM) was 0.879, the relative viability (NCI-H1944; first compound 0.01 µM) was 0.903 and the relative viability (NCI-H1944; first compound 0.03162 µM) was 0.789. The relative viability (NCI-H1944; first compound 0.1 µM) was 0.996, the relative viability (NCI-H1944; first compound 0.3162 µM) was 0.836 and the relative viability (NCI-H1944; first compound 1 µM) was 0.676.
With `COc1nc(C)cnc1NS(=O)(=O)c1cccnc1-c1ccc(-c2nnco2)cc1` [Zibotentan] + CC1(C)CCC(c2ccc(Cl)cc2)=C(CN2CCN(c3ccc(C(=O)NS(=O)(=O)c4ccc(N[C@H](CCN5CCOCC5)CSc5ccccc5)c(S(=O)(=O)C(F)(F)F)c4)cc3)CC2)C1 [Navitoclax] (partner 0.5 µM) the relative viability (IA-LM; first compound 0.08 µM) was 0.764, the relative viability (IA-LM; first compound 0.253 µM) was 0.688 and the relative viability (IA-LM; first compound 0.8 µM) was 0.682. It also gave a relative viability (IA-LM; first compound 2.53 µM) of 0.699, a relative viability (NCI-H520; first compound 0.08 µM) of 1.13 and a relative viability (NCI-H520; first compound 0.253 µM) of 0.93. The relative viability (NCI-H520; first compound 0.8 µM) was 0.996, the relative viability (NCI-H520; first compound 2.53 µM) was 1.37 and the relative viability (EBC-1; first compound 0.08 µM) was 0.487. For the same compound, the relative viability (EBC-1; first compound 0.253 µM) was 0.499, the relative viability (EBC-1; first compound 0.8 µM) was 0.477 and the relative viability (EBC-1; first compound 2.53 µM) was 0.38. For the same compound, the relative viability (NCI-H1299; first compound 0.08 µM) was 1.05, the relative viability (NCI-H1299; first compound 0.253 µM) was 0.998 and the relative viability (NCI-H1299; first compound 0.8 µM) was 1.05. For the same compound, the relative viability (NCI-H1299; first compound 2.53 µM) was 1.05, the relative viability (Calu-6; first compound 0.08 µM) was 0.832 and the relative viability (Calu-6; first compound 0.253 µM) was 0.79. The relative viability (Calu-6; first compound 0.8 µM) was 0.888, the relative viability (Calu-6; first compound 2.53 µM) was 0.894 and the relative viability (NCI-H838; first compound 0.08 µM) was 1.15. For the same compound, the relative viability (NCI-H838; first compound 0.253 µM) was 1.1, the relative viability (NCI-H838; first compound 0.8 µM) was 1.18 and the relative viability (NCI-H838; first compound 2.53 µM) was 1.24. The relative viability (NCI-H1651; first compound 0.08 µM) was 1.08, the relative viability (NCI-H1651; first compound 0.253 µM) was 0.875 and the relative viability (NCI-H1651; first compound 0.8 µM) was 1. For the same compound, the relative viability (NCI-H1651; first compound 2.53 µM) was 1.11, the relative viability (A549; first compound 0.08 µM) was 1.45 and the relative viability (A549; first compound 0.253 µM) was 1.18. For the same compound, the relative viability (A549; first compound 0.8 µM) was 1.26, the relative viability (A549; first compound 2.53 µM) was 1.2 and the relative viability (NCI-H1703; first compound 0.08 µM) was 1.15. It also gave a relative viability (NCI-H1703; first compound 0.253 µM) of 1.08, a relative viability (NCI-H1703; first compound 0.8 µM) of 1.25 and a relative viability (NCI-H1703; first compound 2.53 µM) of 1.03. For the same compound, the relative viability (RERF-LC-KJ; first compound 0.08 µM) was 0.996, the relative viability (RERF-LC-KJ; first compound 0.253 µM) was 1.2 and the relative viability (RERF-LC-KJ; first compound 0.8 µM) was 0.887. For the same compound, the relative viability (RERF-LC-KJ; first compound 2.53 µM) was 0.976, the relative viability (NCI-H1944; first compound 0.08 µM) was 1.06 and the relative viability (NCI-H1944; first compound 0.253 µM) was 1.07. It also gave a relative viability (NCI-H1944; first compound 0.8 µM) of 0.977 and a relative viability (NCI-H1944; first compound 2.53 µM) of 1.03.
`COc1nc(C)cnc1NS(=O)(=O)c1cccnc1-c1ccc(-c2nnco2)cc1` [Zibotentan] + CC(C)C[C@H](NC(=O)[C@H](Cc1ccccc1)NC(=O)c1cnccn1)B(O)O [Bortezomib] (partner 0.002 µM) was tested, and the relative viability (IA-LM; first compound 0.08 µM) was 0.791, the relative viability (IA-LM; first compound 0.253 µM) was 0.758 and the relative viability (IA-LM; first compound 0.8 µM) was 0.709. It also gave a relative viability (IA-LM; first compound 2.53 µM) of 0.828, a relative viability (NCI-H520; first compound 0.08 µM) of 0.541 and a relative viability (NCI-H520; first compound 0.253 µM) of 0.532. The relative viability (NCI-H520; first compound 0.8 µM) was 0.575, the relative viability (NCI-H520; first compound 2.53 µM) was 0.821 and the relative viability (EBC-1; first compound 0.08 µM) was 0.704. It also gave a relative viability (EBC-1; first compound 0.253 µM) of 0.566, a relative viability (EBC-1; first compound 0.8 µM) of 0.584 and a relative viability (EBC-1; first compound 2.53 µM) of 0.592. It also gave a relative viability (NCI-H1299; first compound 0.08 µM) of 0.999, a relative viability (NCI-H1299; first compound 0.253 µM) of 0.998 and a relative viability (NCI-H1299; first compound 0.8 µM) of 0.965. It also gave a relative viability (NCI-H1299; first compound 2.53 µM) of 1.08, a relative viability (Calu-6; first compound 0.08 µM) of 0.929 and a relative viability (Calu-6; first compound 0.253 µM) of 0.888. It also gave a relative viability (Calu-6; first compound 0.8 µM) of 1.02, a relative viability (Calu-6; first compound 2.53 µM) of 1.06 and a relative viability (NCI-H838; first compound 0.08 µM) of 0.891. It also gave a relative viability (NCI-H838; first compound 0.253 µM) of 0.865, a relative viability (NCI-H838; first compound 0.8 µM) of 0.815 and a relative viability (NCI-H838; first compound 2.53 µM) of 0.961. The relative viability (NCI-H1651; first compound 0.08 µM) was 0.981, the relative viability (NCI-H1651; first compound 0.253 µM) was 0.871 and the relative viability (NCI-H1651; first compound 0.8 µM) was 0.902. The relative viability (NCI-H1651; first compound 2.53 µM) was 0.972, the relative viability (NCI-H650; first compound 0.08 µM) was 0.769 and the relative viability (NCI-H650; first compound 0.253 µM) was 0.742. It also gave a relative viability (NCI-H650; first compound 0.8 µM) of 0.726, a relative viability (NCI-H650; first compound 2.53 µM) of 0.696 and a relative viability (NCI-H1703; first compound 0.08 µM) of 0.512. The relative viability (NCI-H1703; first compound 0.253 µM) was 0.372, the relative viability (NCI-H1703; first compound 0.8 µM) was 0.38 and the relative viability (NCI-H1703; first compound 2.53 µM) was 0.346. For the same compound, the relative viability (RERF-LC-KJ; first compound 0.08 µM) was 1.04, the relative viability (RERF-LC-KJ; first compound 0.253 µM) was 1.1 and the relative viability (RERF-LC-KJ; first compound 0.8 µM) was 1.09. It also gave a relative viability (RERF-LC-KJ; first compound 2.53 µM) of 0.998.
